Results reported in PubChem BioAssay AID2060501 (Molecular Pharmacology Branch, DTP, NCI, 2025).

Test system: 282377-053-R-J1-PDC complex spheroids, viability
Assay: Anticancer human tumor 282377-053-R-J1-PDC patient-derived colon adenocarcinoma cell line growth inhibition [GQUAD]
Settings: for IC50: curve of first compound; for viability, T/C: stronger effect = lower value
Description: DNA G-quadruplex Stabilizer Agents in Combinations in Complex Spheroids
A high-throughput screen of multi-cell type tumor spheroids was designed to identify active combinations of DNA G-quadruplex stabilizer agents and targeted small molecules. Complex spheroids include a stromal component modeled by human endothelial cells (HUVEC) and fibroblasts modeled by human mesenchymal stem cells (MSCs). The concentration ranges selected for each drug and investigational agent were based upon clinically achievable concentrations if the clinical Cmax of the agent was known.
Compounds. The drugs and investigational agents: pidnarulex (CX-5461; NSC782164), APTO-253 (NSC789042), BRACO-19 (NSC847499), peposertib (NSC802822), ceralasertib (NSC780249), elimusertib (NSC800525), camonsertib (NSC841442), AZD-1390 (NSC803789), olaparib (NSC753686), talazoparib (NSC767125), ART-558 (NSC835418), sotorasib (NSC818433), MRTX-1133 (NSC836407), SN-38 (NSC673596), topotecan (NSC609699), etoposide (NSC141540), doxorubicin (NSC123127), gemcitabine (NSC613327), 5-fluorouracil (NSC19893), paclitaxel (NSC125973), vemurafenib (NSC761431), panobinostat (NSC761190), R-306465 (JNJ-16241199; NSC773264), adavosertib (NSC754352), TP-3654 (NSC805149), carboplatin (NSC241240), KSQ-4279 (NSC840948), and staurosporine (NSC755774) were obtained from the National Cancer Institute (NCI) Developmental Therapeutics Program Chemical Repository (34). The FDA-approved anticancer drug set is available from the NCI Developmental Therapeutics Program. […] The stock solutions were prepared in dimethyl sulfoxide (DMSO, Sigma-Aldrich, St. Louis, MO, cat. D2650) at 800-fold the tested concentration and stored at -70 degrees C prior to their use. All drugs and investigational agents were tested over a range starting from a high concentration at or near the clinical Cmax and decreasing in half-log increments. If the clinical Cmax for an agent had not been determined, the highest concentration tested was 10 microM.
2.3 Cell Culture. All cells were maintained in an incubator at 37 degrees C and 5% CO2 with 95% humidity. The PDC lines were cultured according to standard operating procedures established by the NCI PDMR. All PDCs were thawed and cultured in Matrigel-coated flasks prepared with a working solution of 1X Ham's F-12 nutrient mix, without supplementation (Invitrogen, cat. 11765054), 100 U/mL penicillin-streptomycin (Invitrogen, cat. 15140122), and 2.5% Matrigel (Corning Inc., cat. 354248) for the first three passages. The 857933-349-R-J2-PDC line was cultured in 6C/Colon 1B media, which includes advanced DMEM/F-12 (Thermo Fisher Scientific, cat. 12634028), 10 mM HEPES (Thermo Fisher Scientific, cat. 15630080), 1X GlutaMAX supplement (Thermo Fisher Scientific, cat. 35050061), 0.1 mg/mL primocin (InvivoGen, cat. ant-pm-2), 10% defined fetal bovine serum, heat inactivated (HyClone Laboratories Inc., cat. SH30070.03HI), 50% L-WRN conditioned media (ATCC, cat. CRL-3276), 1.25 mM N-Acetyl-L-cysteine (Sigma-Aldrich, cat. A9165), 10 mM nicotinamide (Sigma-Aldrich, cat. N0636), 1X B-27 supplement (Thermo Fisher Scientific, cat. 17504044), 1X N-2 supplement (Thermo Fisher Scientific, cat. 17502048), 10 microM Y-27632 dihydrochloride (Tocris Bioscience, cat. 1254), and 50 ng/mL human EGF recombinant protein (Thermo Fisher Scientific, cat. PHG0311). The 485176-168-R4-J1-PDC line was cultured in Panc media, which includes all 6C/Colon 1B media components plus 100 ng/mL human FGF-10 (Thermo Fisher Scientific, cat. 100-26), 500 nM SB-431542 (Selleckchem, cat. S1067), and gastrin (Tocris, cat. 3006).
[…]

[1] = second compound 0.0316 µM, first compound 0.0316 µM
[2] = second compound 0.0316 µM, first compound 0.1 µM
[3] = second compound 0.0316 µM, first compound 0.316 µM
[4] = second compound 0.0316 µM, first compound 1 µM
[5] = second compound 0.0316 µM, first compound 3.16 µM
[6] = second compound 0.0316 µM, first compound 10 µM
[7] = second compound 0.1 µM, first compound 0.0316 µM
[8] = second compound 0.1 µM, first compound 0.1 µM
[9] = second compound 0.1 µM, first compound 0.316 µM
[10] = second compound 0.1 µM, first compound 1 µM
[11] = second compound 0.1 µM, first compound 3.16 µM
[12] = second compound 0.1 µM, first compound 10 µM
[13] = second compound 0.316 µM, first compound 0.0316 µM
[14] = second compound 0.316 µM, first compound 0.1 µM
[15] = second compound 0.316 µM, first compound 0.316 µM
[16] = second compound 0.316 µM, first compound 1 µM
[17] = second compound 0.316 µM, first compound 3.16 µM
[18] = second compound 0.316 µM, first compound 10 µM
[19] = second compound 1 µM, first compound 0.0316 µM
[20] = second compound 1 µM, first compound 0.1 µM
[21] = second compound 1 µM, first compound 0.316 µM
[22] = second compound 1 µM, first compound 1 µM
[23] = second compound 1 µM, first compound 3.16 µM
[24] = second compound 1 µM, first compound 10 µM
[25] = second compound 3.16 µM, first compound 0.0316 µM
[26] = second compound 3.16 µM, first compound 0.1 µM
[27] = second compound 3.16 µM, first compound 0.316 µM
[28] = second compound 3.16 µM, first compound 1 µM
[29] = second compound 3.16 µM, first compound 3.16 µM
[30] = second compound 3.16 µM, first compound 10 µM
[31] = second compound 10 µM, first compound 0.0316 µM
[32] = second compound 10 µM, first compound 0.1 µM
[33] = second compound 10 µM, first compound 0.316 µM
[34] = second compound 10 µM, first compound 1 µM
[35] = second compound 10 µM, first compound 3.16 µM
[36] = second compound 10 µM, first compound 10 µM
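Also: spheroids exposed to compounds for 7 days before readout.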
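For viability, T/C in this document: percent of vehicle DMSO control viability with 100% = untreated-like growth.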

With `Cc1cccc(N(C)C(=O)C2C(O)CCN2c2nc(C)cc(C(F)(F)F)c2C#N)c1` (centres undefined) + Cc1cnc(CNC(=O)c2c(=O)c3ccc(N4CCCN(C)CC4)nc3n3c2sc2ccccc23)cn1 as the compound, how does the IC50 (second compound 0.0316 µM) read?
The IC50 was greater than 10 µM.

What about the IC50 (second compound 0.1 µM) of the same compound?
The IC50 was greater than 10 µM.

And the IC50 (second compound 0.316 µM)?
Its IC50 is greater than 10 µM.

What about the IC50 (second compound 1 µM) of the same compound?
The IC50 was greater than 10 µM.

And the IC50 (second compound 3.16 µM)?
Its IC50 is greater than 10 µM.

What about the IC50 (second compound 10 µM) of the same compound?
The IC50 was 1.25 µM.

And the viability, T/C [1]?
Its viability, T/C is 114%.

And the viability, T/C [2]?
Its viability, T/C is 105%.

What about the viability, T/C [3] of the same compound?
The viability, T/C was 108%.

And the viability, T/C [4]?
Its viability, T/C is 80.3%.

What about the viability, T/C [5] of the same compound?
Its viability, T/C is 95.1%.

And the viability, T/C [6]?
Its viability, T/C is 93.1%.

And the viability, T/C [7]?
The viability, T/C was 96.1%.

What about the viability, T/C [8] of the same compound?
Its viability, T/C is 99.3%.

And the viability, T/C [9]?
The viability, T/C was 95.5%.

And the viability, T/C [10]?
The viability, T/C was 88%.

What about the viability, T/C [11] of the same compound?
The viability, T/C was 88.8%.

And the viability, T/C [12]?
The viability, T/C was 93.6%.

What about the viability, T/C [13] of the same compound?
Its viability, T/C is 95%.

And the viability, T/C [14]?
The viability, T/C was 85.6%.

What about the viability, T/C [15] of the same compound?
The viability, T/C was 98.8%.

And the viability, T/C [16]?
Its viability, T/C is 77%.

What about the viability, T/C [17] of the same compound?
Its viability, T/C is 93.4%.

And the viability, T/C [18]?
The viability, T/C was 79.7%.

And the viability, T/C [19]?
Its viability, T/C is 66.3%.

What about the viability, T/C [20] of the same compound?
The viability, T/C was 60.6%.

And the viability, T/C [21]?
The viability, T/C was 64.1%.

And the viability, T/C [22]?
Its viability, T/C is 60.3%.

And the viability, T/C [23]?
The viability, T/C was 65.9%.

What about the viability, T/C [24] of the same compound?
The viability, T/C was 67.1%.

What about the viability, T/C [25] of the same compound?
The viability, T/C was 54.6%.

And the viability, T/C [26]?
The viability, T/C was 51%.

And the viability, T/C [27]?
The viability, T/C was 56.2%.

What about the viability, T/C [28] of the same compound?
The viability, T/C was 58.8%.

And the viability, T/C [29]?
The viability, T/C was 56.6%.

What about the viability, T/C [30] of the same compound?
The viability, T/C was 58.5%.

What about the viability, T/C [31] of the same compound?
The viability, T/C was 50.6%.

What about the viability, T/C [32] of the same compound?
The viability, T/C was 53.6%.

What about the viability, T/C [33] of the same compound?
Its viability, T/C is 50.6%.

What about the viability, T/C [34] of the same compound?
The viability, T/C was 52.2%.

And the viability, T/C [35]?
Its viability, T/C is 46.4%.

And the viability, T/C [36]?
The viability, T/C was 35.5%.

What does the source list for `O=c1[nH]cc(F)c(=O)[nH]1` + Cc1cnc(CNC(=O)c2c(=O)c3ccc(N4CCCN(C)CC4)nc3n3c2sc2ccccc23)cn1?
IC50 (second compound 0.0316 µM): > 10 µM; IC50 (second compound 0.1 µM): > 10 µM; IC50 (second compound 0.316 µM): > 10 µM; IC50 (second compound 1 µM): > 10 µM; IC50 (second compound 3.16 µM): > 10 µM; IC50 (second compound 10 µM): < 0.0316 µM; viability, T/C [1]: 98.6%; viability, T/C [2]: 92.1%; viability, T/C [3]: 114%; viability, T/C [4]: 82.9%; viability, T/C [5]: 77%; viability, T/C [6]: 65.4%; viability, T/C [7]: 94.6%; viability, T/C [8]: 97.7%; viability, T/C [9]: 107%; viability, T/C [10]: 76.2%; viability, T/C [11]: 76.1%; viability, T/C [12]: 65%; viability, T/C [13]: 78.3%; viability, T/C [14]: 82.6%; viability, T/C [15]: 81.4%; viability, T/C [16]: 76.3%; viability, T/C [17]: 68.5%; viability, T/C [18]: 62.8%; viability, T/C [19]: 51.3%; viability, T/C [20]: 51.8%; viability, T/C [21]: 62.5%; viability, T/C [22]: 56.8%; viability, T/C [23]: 55.6%; viability, T/C [24]: 48.3%; viability, T/C [25]: 54.8%; viability, T/C [26]: 50.1%; viability, T/C [27]: 49%; viability, T/C [28]: 44.2%; viability, T/C [29]: 63.6%; viability, T/C [30]: 53.9%; viability, T/C [31]: 46.4%; viability, T/C [32]: 45.7%; viability, T/C [33]: 54.5%; viability, T/C [34]: 52.5%; viability, T/C [35]: 54.5%; viability, T/C [36]: 34.9%
